Assay results published in patent publication US11147792B2, “Inhibitors of microbially induced amyloid” (Axial Therapeutics, Inc, priority 2017, dated 2021).

How the values were obtained:
[1] = molecular target: T1, α-synuclein seeded by E. coli CsgA (Homo sapiens, UniProt P37840); assay: In vitro Thioflavin T assay of CsgA-seeded α-synuclein aggregation; assay type: biochemical; details: compounds at 50 μM; 2 μM CsgA, 50 μM α-synuclein; ThT fluorescence at 40 hours; read-out: Inhibition of Aggregation CsgA-seeded αSyn
T1 construct: made in house; host or cells: E. coli NEB 3016 slyD::kan (CsgA, pET11d); E. coli (α-synuclein)
Protocol: In Vitro Thioflavin T Assay to Determine the Effects of Compounds on CsgA-Seeded α-Synuclein Aggregation.
To induce over-expression of CsgA, 0.5 mM IPTG was added to cultures with an optical density at 600 nm (OD600) of 0.8-1, and induced cells were cultured at 37° C. for 1 hour prior to harvest via centrifugation. […] Buffers with imidazole were freshly prepared prior to the protein purification. Purified CsgA was passed through a 30 kDa molecular weight cut-off filter and through a desalting column. All steps of the CsgA purification in the absence of guanidine hydrochloride were conducted in rapid succession with as little delay as possible. […] The ammonium sulfate pellet was washed with an equal volume of 100 mM ammonium acetate in ethanol, pelleted via centrifugation, washed twice with ethanol, dried overnight, resuspended in 10 mM Tris pH 7.4, and passed through a 50 kDa cut-off column. The assay was conducted in 96-well black microplates with a single glass 2 mm bead per well, 40 μM ThioflavinT, 1% DMSO, 2 μM CsgA, 50 μM α-synuclein, 100 mM sodium chloride, 9.3 mM potassium phosphate pH 7.3, and compounds at 50 μM. […] The effect of compounds on CsgA-seeded α-synuclein aggregation in the assay was determined with data from 40 hours, following the plateau of the fluorescent signal in the untreated (no compound) control wells containing CsgA and α-synuclein. Fluorescence values for each compound with CsgA and α-synuclein were first adjusted by subtracting the average fluorescence of the compound in the absence of CsgA and α-synuclein.

[2] = tested on: Thy1-αSyn mice (ASO) mono-colonized with WT E. coli; assay: Motor function of germ-free Thy1-αSyn (ASO) mice mono-colonized with WT E. coli, EGCG in drinking water; assay type: in vivo, mouse; details: EGCG ad lib in drinking water vs vehicle
Protocol: Evidence has linked unregulated α-synuclein expression in humans to a higher risk of PD, providing an epidemiological foundation for the Thy1-α-synuclein mouse model. Defects in coordinated motor tasks become evident at 12 weeks of age. Motor function is measured via four tests: beam traversal, pole descent, nasal adhesive removal, and hind limb clasping reflexes, as previously validated in this model (described in Fleming et al., J. Neurosci. 24, 9434-9440 (2004), and Sampson et al., Cell 167(6):1469-1480 (2016) the content of which are hereby expressly incorporated by reference in its entirety). […] Removal of an adhesive from the nasal bridge, a test of fine motor control, is also impaired in SPF-ASO mice compared to SPF-WT mice, as is the hind limb clasping reflex, a measure of striatal dysfunction.
Germ-free Thy1-αSyn mice (ASO) mono-colonized with WT E. coli at 5-6 weeks of age, and given water alone (Vehicle: Veh) or treated with EGCG ad lib in drinking water (+EGCG). RNA was extracted from fecal pellets and csgA expression quantified by qRT-PCR, relative to rrsA. FIG. 1C is a graph showing fold-change in csgA expression. Motor function was assessed at 15-16 weeks of age by quantifying beam traversal time (FIG. 1D), pole descent time (FIG. 1E), nasal adhesive removal time (FIG. 1F), hindlimb clasping score (FIG. 1G), and wire hang tests (FIG. 1H). Time to cross, time to descent, time to remove, and hindlimb score were lower in the EGCG-treated mice, while time to fall was higher in the EGCG-treated mice compared to vehicle treated control.
Inhibition of functional amyloid formation was studied. Germ-free Thy1-αSyn mice (ASO) were monocolonized with wild-type E. coli and treated with water alone (Vehicle, Veh) or given EGCG ad lib in drinking water (+EGCG). Motor function was assessed at 10, 12, and 15 weeks of age by quantifying beam traversal time (FIG. 5A), pole descent time (FIG. 5B), nasal adhesive removal time (FIG. 5C), hindlimb clasping score (FIG. 5D), and wire hang tests (FIG. 5E). FIG. 5F depicts principal component analysis of compiled motor scores from FIGS. 5A-D. Thin sections of brain were stained for Iba1 (microglia) and morphological characteristics quantified of microglia resident in the striatum (FIGS. 5G-H) and substantia nigra (FIGS. 5I-J). N=10-11 (FIGS. 5A-F), n=3 (FIGS. 5G-J) (averaged from 5-7 cells for branching). Bars represent the mean and standard error. Time courses analyzed by two-way ANOVA, with Sidak post-hoc test for between group comparisons indicated above individual time points, and brackets indicating significance between treatments. Data in (FIGS. 5G-J) analyzed by two-tailed t-test. *p≤0.05; **p≤0.01; ****p≤0.0001.

In the case of `O=C(O[C@@H]1Cc2c(O)cc(O)cc2O[C@@H]1c1cc(O)c(O)c(O)c1)c1cc(O)c(O)c(O)c1` [EGCG, epigallocatechin gallate], the inhibition at 50 µM [1] is reported as 77%, the “progressive motor deficits exacerbated by E. coli (motor performance)” value [2] is reported as “successfully dampens progressive motor deficits” and the “beam traversal time (time to cross)” value ([2]; 15-16 weeks of age) is reported as “lower”. The hindlimb clasping score ([2]; 15-16 weeks of age) was “lower”, the “nasal adhesive removal time (time to remove)” value ([2]; 15-16 weeks of age) was “lower” and the “pole descent time (time to descent)” value ([2]; 15-16 weeks of age) was “lower”. For the same compound, the “wire hang test (time to fall)” value ([2]; 15-16 weeks of age) was “higher”.
